Common to all, as to assay: inhibition of tumour cell growth, NCI panel, 48 h
Test [1] concerns HS 578T breast.
Test [2] has as its system UACC-257 melanoma.
In test [3] the test system is SW-620 colon.
Test [4] relates to M14 melanoma.
The test system of test [5] is HCT-15 colon.
The test system of test [6] is OVCAR-8 ovarian.
For test [7], the system named is CAKI-1 renal.
In test [8] the test system is MALME-3M melanoma.
The subject of test [9] is SK-MEL-28 melanoma.
Test [10] deals with A498 renal.

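Interpolation was linear, between the two tested concentrations surrounding the appropriate level; five concentrations were tested over 48 hours in 96-well plates. GI50 = concentration required for 50% inhibition of growth. TGI: concentration producing complete growth inhibition.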 Bounds are passed on as bounds.

With `COc1cc(C(=O)N2CCN(c3ccccc3OC)CC2)c(N)cc1OCc1ccccc1`, the GI50 in [1] is 42.7 µM; in test [2] it was 39 µM; in test [3], 41.1 µM; in test [4], 39.3 µM; in [5] it was 34.9 µM; in test [6], 38.3 µM. For the same molecule, the GI50 is 37.9 µM in test [7], 22.3 µM in test [8], 43.4 µM in [9] and 30.6 µM in test [10]. Moreover, the TGI in test [1], in [2], in test [3], in [4], in test [5] and in test [6] was above 100 µM throughout. Moreover, the TGI in test [7] was above 100 µM; in test [8] it was 55.6 µM; in test [9] it was above 100 µM; in [10] it was 81.2 µM.
Regarding `COc1cc2c3c(n(CCCNC(=O)OCC4c5ccccc5-c5ccccc54)c(=O)c2cc1OC)-c1cc2c(cc1C3=O)OCO2`, the GI50 in test [1] was 22.8 µM; in test [2], above 100 µM; in test [3], above 100 µM; in test [4], 36.8 µM; in [5] it was above 63.2 µM; in [6], above 93.6 µM. For the same molecule, the GI50 in test [7] was 4.05 µM; in [8], 93.3 µM; in test [9], above 100 µM; in test [10], 24.9 µM. The TGI in test [1], in test [2], in [3], in test [4], in test [5] and in test [6] was above 100 µM each time. Also, the TGI in test [7], in [8], in test [9] and in [10] was above 100 µM throughout.
Consider `CS(=O)(=O)Nc1cccc(-c2ccc3c(NC(=O)C4CC4)n[nH]c3c2)c1`, for which the GI50 is 2.22 µM in test [1]; above 25 µM in test [2]; 2.14 µM in test [3]; 2.33 µM in test [4]; 7.29 µM in [5]; 6.26 µM in test [6]. In addition, the GI50 in test [7] is above 20.6 µM; in test [8], above 4.93 µM; in test [9], 3.4 µM; in test [10], 4.32 µM. Further, the TGI in [1], in test [2], in test [3], in test [4], in test [5] and in test [6] was above 25 µM in each case. In addition, the TGI in test [7], in test [8], in test [9] and in test [10] was above 25 µM each time.
Turning to `COc1cc(C2CC(c3ccc(Nc4ccnc5cc(Cl)ccc45)cc3)=NN2C=O)cc(OC)c1OC` (stereo not given), the GI50 in [1] was 3.24 µM; in test [2], 2.84 µM; in test [3], 3.49 µM; in test [4], 3.75 µM; in test [5], 3.56 µM; in test [6], 9.98 µM. The GI50 in test [7] is 5.47 µM; in [8], 3.2 µM; in test [9] it was 2.22 µM; in [10] it was 15.3 µM. The TGI is 27.7 µM in [1]; 8.28 µM in test [2]; 17.7 µM in test [3]; 13.9 µM in test [4]; above 100 µM in test [5]; above 100 µM in [6]. Also, the TGI came to 26.5 µM in test [7], 8.32 µM in test [8], 4.81 µM in test [9] and 49.5 µM in test [10].
On to `O=C1c2cccc3cccc(c23)C(=O)N1CCCCN1CCN(CCCCOc2ccc(-c3nc4ccc(N5CCOCC5)cc4[nH]3)cc2)CC1`, for which the GI50 in [1] is above 100 µM; in test [2], 15 µM; in [3], above 100 µM; in test [4], above 100 µM; in test [5] it was 56.2 µM; in [6], 8.8 µM. Besides, the GI50 was above 100 µM in test [7], 29.5 µM in [8], 66 µM in test [9] and above 100 µM in test [10]. Besides, the TGI in test [1], in [2], in test [3], in test [4], in test [5] and in test [6] was above 100 µM in each case. Moreover, the TGI in test [7], in test [8], in test [9] and in test [10] was above 100 µM throughout.
For `CCN(CC)CCCNc1nc2ccccc2c2c(=O)c3cc(Cl)ccc3sc12`, the GI50 in test [1] was 3.13 µM; in test [2], 5.43 µM; in test [3], 1.77 µM; in [4], 1.94 µM; in test [5], 1.61 µM; in test [6], 3.26 µM. Moreover, the GI50 was 4.4 µM in [7], 1.63 µM in test [8], 1.81 µM in test [9] and 8.42 µM in test [10]. The TGI came to 14.8 µM in test [1]; 22.5 µM in test [2]; 3.41 µM in test [3]; 3.81 µM in test [4]; 3.14 µM in test [5]; 15.7 µM in test [6]. For the same molecule, the TGI in test [7] was found to be 17.1 µM; in [8] it was 3.26 µM; in [9], 3.34 µM; in test [10] it was 21.4 µM.
For `Cc1cc(NCCCCNc2ccnc3cc(Cl)ccc23)nc(Nc2ccc(C(=O)N3CCCC3)cc2)n1`, the GI50 was 1.85 µM in test [1]; 2.09 µM in test [2]; 1.7 µM in test [3]; 1.96 µM in test [4]; 2.28 µM in test [5]; 3.14 µM in test [6]. Also, the GI50 in [7] was 2.06 µM; in test [8], 1.89 µM; in [9], 2 µM; in [10], 1.51 µM. Moreover, the TGI in test [1] was 4.74 µM; in [2] it was 4.19 µM; in test [3], 3.5 µM; in test [4] it was 3.87 µM; in [5] it was 6.75 µM; in test [6], 11.2 µM. The TGI in test [7] is 5.6 µM; in test [8], 4.17 µM; in [9], 4.12 µM; in test [10], 7.09 µM.

For the origin of these results see PubChem BioAssay (NCI).
